Experimental data from patent publication US20080003635A1, “High Throughput Collagen Synthesis Assay” (InterMune, Inc., priority 2006, published 2008).
Where two headings read alike, the source gives them in different places.

Test system: Human lung fibroblast cells HFL1
Experiment: cells
Assay type: cell-based
Procedure: Human lung fibroblast cells HFL1 were seeded as 5×10^4 cells/well in 48-well plate and cultured for 3-7 days in FK12 medium supplemented with 10% heat inactivated fetal calf serum, 2 mM L-glutamine, streptomycin (100 μg/ml), and penicillin (100 units/ml). […] Medium was removed and cells were fixed to the plate with 0.5% glutaraldehyde, prepared in 1× phosphate-buffered-saline (PBS), for 30 minutes at room temperature. Glutaraldehyde was removed, cells were washed with ddH2O and the first 24 wells, which were used to determine collagen synthesis, were treated with 0.5 M acetic acid for 30 minutes, while the second 24 wells were stained with 0.1% crystal violet for viability for 30 minutes at room temperature. After all of the wells were washed with ddH2O, 250 μl of Sirius Red was added to acetic acid-treated cells for 2 hours. The Sirius Red was then removed, and the wells were washed with ddH2O. Absorbed Sirius Red and crystal violet were eluted with 300 μl of alkaline solution and 0.1 M citric acid (pH: 4.2) prepared in 50% ethanol, respectively.
Absorbances of eluted Sirius Red and crystal violet were determined at 540 and 600 nm. The extent of collagen accumulation was determined by normalizing the levels of induced collagen to cell density.

**Q.** How did the fold induction at 1000 µM (HFL1, 24 h, read-out: Fold Induction of Collagen, 250 pg/ml TGF-β, 24 hrs., P 1 mM, A 300 pg/mL) turn out when `Cc1ccc(=O)n(-c2ccccc2)c1` [P, pirfenidone] was run?
**A.** Its fold induction at 1000 µM is 0.973.

**Q.** And the fold induction at 1000 µM (HFL1, 24 h, read-out: Fold Induction of Collagen, 500 pg/ml TGF-β, 24 hrs., P 1 mM, A 300 pg/mL)?
**A.** The fold induction at 1000 µM was 0.98.

**Q.** And the fold induction at 1000 µM (HFL1, 24 h, read-out: Fold Induction of Collagen, 1000 pg/ml TGF-β, 24 hrs., P 1 mM, A 300 pg/mL)?
**A.** The fold induction at 1000 µM was 0.998.

**Q.** What about the fold induction at 1000 µM (HFL1, 48 h, read-out: Fold Induction of Collagen, 250 pg/ml TGF-β, 48 hrs., P 1 mM, A 300 pg/mL) of the same compound?
**A.** Its fold induction at 1000 µM is 0.997.

**Q.** And the fold induction at 1000 µM (HFL1, 48 h, read-out: Fold Induction of Collagen, 500 pg/ml TGF-β, 48 hrs., P 1 mM, A 300 pg/mL)?
**A.** Its fold induction at 1000 µM is 0.884.

**Q.** What about the fold induction at 1000 µM (HFL1, 48 h, read-out: Fold Induction of Collagen, 1000 pg/ml TGF-β, 48 hrs., P 1 mM, A 300 pg/mL) of the same compound?
**A.** Its fold induction at 1000 µM is 0.954.

**Q.** What about the fold induction at 1000 µM (HFL1, 72 h, read-out: Fold Induction of Collagen, 250 pg/ml TGF-β, 72 hrs., P 1 mM, A 300 pg/mL) of the same compound?
**A.** The fold induction at 1000 µM was 0.928.

**Q.** And the fold induction at 1000 µM (HFL1, 72 h, read-out: Fold Induction of Collagen, 500 pg/ml TGF-β, 72 hrs., P 1 mM, A 300 pg/mL)?
**A.** The fold induction at 1000 µM was 0.931.

**Q.** What about the fold induction at 1000 µM (HFL1, 72 h, read-out: Fold Induction of Collagen, 1000 pg/ml TGF-β, 72 hrs., P 1 mM, A 300 pg/mL) of the same compound?
**A.** The fold induction at 1000 µM was 0.917.
